Laboratory results published in patent publication US10285983B2, “3-(1H-pyrrolo[2,3-B]pyridin-2-yl)-1H-pyrazolo[3,4-B] pyridines and therapeutic uses thereof” (Samumed, LLC, priority 2015, dated 2019).

Experiments:
[1] = system: Wnt activity (Sp5-Luc reporter, SW480 colon carcinoma cells); experiment: Wnt activity screening assay, Sp5-Luc reporter gene in SW480 cells; format: cell-based; conditions: Homo sapiens; for EC50: overnight incubation; for inhibition at 10 µM: given for EC50 >10 μM, read-out: percent inhibition at 10 μM
Text: The screening assay for Wnt activity is described as follows. Reporter cell lines can be generated by stably transducing cancer cell lines (e.g., colon cancer) or primary cells (e.g., IEC-6 intestinal cells) with a lentiviral construct that includes a Wnt-responsive promoter driving expression of the firefly luciferase gene.
SW480 colon carcinoma cells were transduced with a lentiviral vector expressing luciferase with a human Sp5 promoter consisting of a sequence of eight TCF/LEF binding sites. SW480 cells stably expressing the Sp5-Luc reporter gene and a hygromycin resistance gene were selected by treatment with 150 μg/mL of hygromycin for 7 days. These stably transduced SW480 cells were expanded in cell culture and used for all further screening activities. Each compound was dissolved in DMSO as a 10 mM stock and used to prepare compound source plates. Serial dilution (1:3, 10-point dose-response curves starting from 10 μM) and compound transfer was performed using the ECHO 550 (Labcyte, Sunnyvale, Calif.) into 384-well white solid bottom assay plates (Greiner Bio-One) with appropriate DMSO backfill for a final DMSO concentration of 0.1%. For Sp5-Luc reporter gene assays, the cells were plated at 4,000 cells/well in 384-well plates with medium containing 1% fetal bovine serum and incubated overnight at 37° C. and 5% CO2. Following incubation, 20 μl of BrightGlo luminescence reagent (Promega) was added to each well of the 384-well assay plates. The plates were placed on an orbital shaker for 2 min and then luminescence was quantified using the Envision (Perkin Elmer) plate reader. Readings were normalized to DMSO only treated cells, and normalized activities were utilized for EC50 calculations using the dose-response log (inhibitor) vs. response—variable slope (four parameters) nonlinear regression feature available in GraphPad Prism 5.0 (or Dotmatics). For EC50 of >10 μM, the percent inhibition at 10 μM is provided.

[2] = system: primary human mesenchymal stem cells (hMSCs); experiment: Chondrogenesis induction in hMSCs (nodule count, Rhodamine B/Nile Red); format: cell-based; conditions: 144 h, 6 days; for Emax: relative to TGF-β3 (10 ng/mL) positive control, read-out: Max. Activity as % TGF-β3 activity
Description: Representative compounds were screened using primary human mesenchymal stem cells (hMSCs) to determine their ability to induce chondrogenesis (process by which cartilage is developed).
Primary human mesenchymal stem cells (hMSCs) were purchased from Lonza (Walkersville, Md.) and expanded in Mesenchymal Stem Cell Growth Media (Lonza). Cells between passage 3 and 6 were used for the experiments.
Each compound was dissolved in DMSO as a 10 mM stock and used to prepare compound source plates. Serial dilution (1:3, 6-point dose-response curves from 2700 nM to 10 nM) and compound transfer was performed using the ECHO 550 (Labcyte, Sunnyvale, Calif.) into 96-well clear bottom assay plates (Greiner Bio-One) with appropriate DMSO backfill for a final DMSO concentration of 0.03%. hMSCs were plated at 20,000 cells/well in 250 μL/well Incomplete Chondrogenic Induction Medium (Lonza; DMEM, dexamethasone, ascorbate, insulin-transferrin-selenium [ITS supplement], gentamycin-amphotericin [GA-1000], sodium pyruvate, proline and L-glutamine). TGF-β3 (10 ng/mL) was used as a positive control for differentiation while negative control wells were treated with 75 nL DMSO for normalization and calculating EC50 values. Cells were incubated at 37° C. and 5% CO2 for 6 days. To image chondrogenic nodules, the cells were fixed using 4% formaldehyde (Electron Microscopy Sciences), and stained with 2 μg/mL Rhodamine B (Sigma-Aldrich) and 20 μM Nile Red (Sigma-Aldrich) [Johnson K., et. al, A Stem Cell-Based Approach to Cartilage Repair, Science, (2012), 336(6082), 717-721]. The nodules imaged (4 images per well at 4× magnification) by excitation at 531 nm and emission at 625 nm and quantified using the CellInsight CX5 (Thermo Scientific). Number of nodules in each well was normalized to the average of 3 DMSO treated wells on the same plate using Excel (Microsoft Inc.). The normalized averages (fold change over DMSO) of 3 replicate wells for each compound concentration were calculated. Due to solubility limitations of some of the compounds, curve fitting was incomplete leading to inaccurate EC50 determinations.
Using TGF-β3 as a positive control, the concentration of representative compounds required to induce 50% levels of chondrogenesis is reported. In addition, the maximum activity of each compound and the respective dose that each compound reached maximum chondrogenesis activity is reported.

SMILES	EC50 [1]	Emax [2]	inhibition at 10 µM [1]	EC50 ([2]; concentration required to induce 50% levels of chondrogenesis vs TGF-β3, read-out: Conc (nM) of 50% TGF-β3 activity)
O=C(Nc1cncc(-c2cnc3[nH]nc(-c4cc5cccnc5[nH]4)c3c2)c1)C1CCCCC1 [Compound 275, N-(5-(3-(1H-Pyrrolo[2,3-b]pyridin-2-yl)-1H-pyrazolo[3,4-b]pyridin-5-yl)pyridin-3-yl)cyclohexanecarboxamide]	1.26 µM	28%	–	–
CN(C)Cc1cncc(-c2cnc3[nH]nc(-c4cc5c(N6CCCCC6)ccnc5[nH]4)c3c2)c1 [Compound 181, N,N-Dimethyl-1-(5-(3-(4-(piperidin-1-yl)-1H-pyrrolo[2,3-b]pyridin-2-yl)-1H-pyrazolo[3,4-b]pyridin-5-yl)pyridin-3-yl)methanamine]	> 10 µM	46%	38.8%	–
CN(C)c1cncc(-c2cnc3[nH]nc(-c4cc5c(-c6ccccc6F)ccnc5[nH]4)c3c2)c1 [Compound 63, 5-(3-(4-(2-Fluorophenyl)-1H-pyrrolo[2,3-b]pyridin-2-yl)-1H-pyrazolo[3,4-b]pyridin-5-yl)-N,N-dimethylpyridin-3-amine]	> 10 µM	35%	4%	–
CC(C)(C)CC(=O)Nc1cncc(-c2cnc3[nH]nc(-c4cc5c(-c6ccncc6)ccnc5[nH]4)c3c2)c1 [Compound 128, 3,3-Dimethyl-N-(5-(3-(4-(pyridin-4-yl)-1H-pyrrolo[2,3-b]pyridin-2-yl)-1H-pyrazolo[3,4-b]pyridin-5-yl)pyridin-3-yl)butanamide]	> 10 µM	79%	0%	300 nM
Nc1cncc(-c2cnc3[nH]nc(-c4cc5c(-c6ccccc6F)ccnc5[nH]4)c3c2)c1 [Compound 59, 5-(3-(4-(2-Fluorophenyl)-1H-pyrrolo[2,3-b]pyridin-2-yl)-1H-pyrazolo[3,4-b]pyridin-5-yl)pyridin-3-amine]	> 10 µM	28%	48.3%	–
CCC(=O)Nc1cncc(-c2cnc3[nH]nc(-c4cc5c(-c6cccc(F)c6)ccnc5[nH]4)c3c2)c1 [Compound 1, N-(5-(3-(4-(3-Fluorophenyl)-1H-pyrrolo[2,3-b]pyridin-2-yl)-1H-pyrazolo [3,4-b]pyridin-5-yl)pyridin-3-yl)propionamide]	> 10 µM	–	46.1%	–
Fc1cccc(-c2ccnc3[nH]c(-c4n[nH]c5ncc(-c6cncc(OCc7ccccc7)c6)cc45)cc23)c1 [Compound 518, 5-(5-(Benzyloxy)pyridin-3-yl)-3-(4-(3-fluorophenyl)-1H-pyrrolo[2,3-b]pyridin-2-yl)-1H-pyrazolo[3,4-b]pyridine]	> 10 µM	–	0%	–
O=C(Nc1cncc(-c2cnc3[nH]nc(-c4cc5cccnc5[nH]4)c3c2)c1)C1CCCC1 [Compound 274, N-(5-(3-(1H-Pyrrolo[2,3-b]pyridin-2-yl)-1H-pyrazolo[3,4-b]pyridin-5-yl)pyridin-3-yl)cyclopentanecarboxamide]	> 10 µM	–	40.3%	–
Fc1cccc(-c2ccnc3[nH]c(-c4n[nH]c5ncc(-c6ccccn6)cc45)cc23)c1 [Compound 28, 3-(4-(3-Fluorophenyl)-1H-pyrrolo[2,3-b]pyridin-2-yl)-5-(pyridin-2-yl)-1H-pyrazolo[3,4-b]pyridine]	> 10 µM	–	15%	–
O=C(Nc1cncc(-c2cnc3[nH]nc(-c4cc5c(-c6ccccc6F)ccnc5[nH]4)c3c2)c1)C1CCCC1 [Compound 78, N-(5-(3-(4-(2-Fluorophenyl)-1H-pyrrolo[2,3-b]pyridin-2-yl)-1H-pyrazolo [3,4-b]pyridin-5-yl)pyridin-3-yl)cyclopentanecarboxamide]	> 10 µM	–	17%	–
CN(C)c1cncc(-c2cnc3[nH]nc(-c4cc5c(-c6cccs6)ccnc5[nH]4)c3c2)c1 [Compound 343, N,N-Dimethyl-5-(3-(4-(thiophen-2-yl)-1H-pyrrolo[2,3-b]pyridin-2-yl)-1H-pyrazolo[3,4-b]pyridin-5-yl)pyridin-3-amine]	> 10 µM	–	18.3%	–
Cc1ccncc1-c1cnc2[nH]nc(-c3cc4c(-c5ccncc5)ccnc4[nH]3)c2c1 [Compound 117, 5-(4-Methylpyridin-3-yl)-3-(4-(pyridin-4-yl)-1H-pyrrolo[2,3-b]pyridin-2-yl)-1H-pyrazolo[3,4-b]pyridine]	> 10 µM	–	13%	–
CC(C)Nc1cncc(-c2cnc3[nH]nc(-c4cc5c(-c6cccnc6)ccnc5[nH]4)c3c2)c1 [Compound 96, N-Isopropyl-5-(3-(4-(pyridin-3-yl)-1H-pyrrolo[2,3-b]pyridin-2-yl)-1H-pyrazolo[3,4-b]pyridin-5-yl)pyridin-3-amine]	> 10 µM	–	30.1%	–
Fc1ccc(-c2ccnc3[nH]c(-c4n[nH]c5ncc(-c6cncc(CN7CCC(F)(F)C7)c6)cc45)cc23)cc1 [Compound 54, 5-(5-((3,3-Difluoropyrrolidin-1-yl)methyl)pyridin-3-yl)-3-(4-(4-fluorophenyl)-1H-pyrrolo[2,3-b]pyridin-2-yl)-1H-pyrazolo[3,4-b]pyridine]	> 10 µM	–	8.7%	–
O=C(Nc1cncc(-c2cnc3[nH]nc(-c4cc5c(-c6cccc(F)c6)ccnc5[nH]4)c3c2)c1)C1CC1 [Compound 20, N-(5-(3-(4-(3-Fluorophenyl)-1H-pyrrolo[2,3-b]pyridin-2-yl)-1H-pyrazolo [3,4-b]pyridin-5-yl)pyridin-3-yl)cyclopropanecarboxamide]	> 10 µM	–	57.3%	–
c1cc(N2CCCCC2)c2cc(-c3n[nH]c4ncc(-c5cncc(CN6CCCC6)c5)cc34)[nH]c2n1 [Compound 182, 3-(4-(Piperidin-1-yl)-1H-pyrrolo[2,3-b]pyridin-2-yl)-5-(5-(pyrrolidin-1-ylmethyl)pyridin-3-yl)-1H-pyrazolo[3,4-b]pyridine]	> 10 µM	–	7.1%	–
CC(C)(C)CC(=O)Nc1cncc(-c2cnc3[nH]nc(-c4cc5c(-c6ccccc6F)ccnc5[nH]4)c3c2)c1 [Compound 72, N-(5-(3-(4-(2-Fluorophenyl)-1H-pyrrolo[2,3-b]pyridin-2-yl)-1H-pyrazolo [3,4-b]pyridin-5-yl)pyridin-3-yl)-3,3-dimethylbutanamide]	> 10 µM	–	16%	–
c1csc(-c2ccnc3[nH]c(-c4n[nH]c5ncc(-c6cncc(OC7CCCCC7)c6)cc45)cc23)c1 [Compound 703, 5-(5-(Cyclohexyloxy)pyridin-3-yl)-3-(4-(thiophen-2-yl)-1H-pyrrolo[2,3-b]pyridin-2-yl)-1H-pyrazolo[3,4-b]pyridine]	> 10 µM	–	38.6%	–
c1ncc(-c2cnc3[nH]nc(-c4cc5c(N6CCCCC6)ccnc5[nH]4)c3c2)cn1 [Compound 195, 3-(4-(Piperidin-1-yl)-1H-pyrrolo[2,3-b]pyridin-2-yl)-5-(pyrimidin-5-yl)-1H-pyrazolo[3,4-b]pyridine]	> 10 µM	–	6.9%	–
Fc1ccc(-c2ccnc3[nH]c(-c4n[nH]c5ncc(-c6cncc(CN7CCCCC7)c6)cc45)cc23)cc1 [Compound 43, 3-(4-(4-Fluorophenyl)-1H-pyrrolo[2,3-b]pyridin-2-yl)-5-(5-(piperidin-1-ylmethyl)pyridin-3-yl)-1H-pyrazolo[3,4-b]pyridine]	> 10 µM	–	2.8%	–
